Marks after values point to notes of the source that are not given here.
Assays:
neutrophils = conditions: disclosed by Lee et al., Biochem. Biophys. Res. Commun. 1991; cited from earlier work
[1] = test system: conjunctival EPO activity; assay: Mouse late-phase allergy model (OVA-induced allergic conjunctivitis), conjunctival EPO activity assay; assay type: in vivo, mouse (female BALB/c); conditions: for EPO Activity (ng/ml/mg tissue) ± S.D.: single 5 μl topical drop O.D. BID, conjunctival EPO activity at 24 hrs post-challenge, mean ± S.D.
Protocol: Active Sensitization and Induction of Allergic Conjunctivitis (AC)
Female BALB/c mice, 6 to 9 months old (Charles River Labs), were given a single intraperitoneal injection of 100 μg chicken ovalbumin (OVA; Sigma) which had been absorbed to 5 mg of alum (Pierce Chemical) as an adjuvant or 5 mg alum only (unsensitized group). On day 14 after sensitization, all mice were challenged with a single topical drop O.D. of 1 mg OVA dissolved in 5 μl PBS.
Drugs or vehicles were administered to mice as a single 5 μl drop O.D. at 60 min before challenge and again at 16 hrs after challenge (BID dosing). Mice were euthanized at 24 hrs after challenge.
Mice were euthanized at 24 hrs after topical challenge and upper and lower eyelids containing palpebral conjunctiva were excised and immediately frozen on dry ice. Samples were weighed frozen and then thawed and homogenized on ice in 2 ml of 50 mM HEPES buffer, pH 6.5. Samples were pelleted at 4000 rpm for 20 min at 4° C. and supernatants were discarded. To each pellet, 1 ml of 0.5% cetyltrimethylammonium chloride (CTAC) was added and samples were vortexed vigorously. Samples were then subjected to three freeze-thaw cycles between −80° C. and 37° C. After final thaw, samples were sonicated on ice for 15-30 sec and pelleted at 4000 rpm for 20 min at 4° C. EPO activity assay was performed on supernatants.
For the EPO activity assay, 75 μl of each sample were added in triplicate to wells of a 96-well clear flat-bottomed microplate. 75 μl of EPO substrate solution [6 mM o-phenylenediamine (OPD), 8.8 mM H2O2, and 6 mM KBr in 50 mM HEPES, pH 6.5] were then added to each well using a multichannel pipetter. The reaction was allowed to run for 3 min and was stopped by addition of 150 μl of 4M H2SO4. Optical density at 490 nm (OD490) was read on a Bio-Tek Synergy. HT plate reader. […] 75 μl triplicates of each standard were used on each run of the assay. Linear regression was determined for the resulting plot of [EPO] vs OD490. Final [EPO] in each sample was determined by solving for x in the equation y=m*x+b, where y=OD490, m=[…].
Groups of means were compared using Student's unpaired t-test or Dunnett's t-test where appropriate. […] Data are expressed as mean±standard deviation.

| Compound | inhibition of LTB4-induced chemotaxis of neutrophils (neutrophils) | inhibition of conjunctival EPO activity (in words) ([1]; all three doses (0.001%, 0.01%, and 0.1% solutions), 24 hrs post-challenge, efficacy comparable to 0.1% dexamethasone) | EPO Activity (ng/ml/mg tissue) ± S.D. ([1]; dose 0.001%) | EPO Activity (ng/ml/mg tissue) ± S.D. ([1]; dose 0.01%) | EPO Activity (ng/ml/mg tissue) ± S.D. ([1]; dose 0.1%) |
| --- | --- | --- | --- | --- | --- |
| CCCCC[C@H](O)/C=C/C=C\C=C\C=C\[C@@H](O)[C@@H](O)CCCC(=O)O [lipoxin A4, Lipoxin A4, reference compound] | inhibit |  |  |  |  |
| COC(=O)CCC[C@H](O)[C@H](O)CO [compound 1] | as potently as lipoxin A4 | significantly inhibited | 5.2 ± 2.5^c,d ng/ml/mg tissue | 4.8 ± 1.2^c,d ng/ml/mg tissue | 3.2 ± 1.0^c,d ng/ml/mg tissue |
| CCCCC[C@H](O)[C@H](O)CO [compound 2] | as potently as lipoxin A4 |  |  |  |  |
| C[C@@H]1C[C@H]2[C@@H]3CCC4=CC(=O)C=C[C@]4(C)[C@@]3(F)[C@@H](O)C[C@]2(C)[C@@]1(O)C(=O)CO [dexamethasone, reference compound] |  |  |  |  | 4.0 ± 0.5^c ng/ml/mg tissue |
